Assay results from patent US11339171B2, “MDM2 inhibitors” (Gan & Lee Pharmaceuticals, priority 2017, dated 2022).
Several values for one entry are separate records, joined by “and”; a condition that tells them apart may be missing. Equal values may be shown once. Read-outs that look alike come from different tables or passages of the source.

Experiments:
MDM2 = target: T1, MDM2 (Homo sapiens, UniProt Q00987); assay: Inhibition test of MDM2-P53 (GST-MDM2, Biotin-P53, Anti-GST-Tb, SA-XL665); assay type: binding
T1 construct: made in house
T1 sequence (Q00987 whole entry): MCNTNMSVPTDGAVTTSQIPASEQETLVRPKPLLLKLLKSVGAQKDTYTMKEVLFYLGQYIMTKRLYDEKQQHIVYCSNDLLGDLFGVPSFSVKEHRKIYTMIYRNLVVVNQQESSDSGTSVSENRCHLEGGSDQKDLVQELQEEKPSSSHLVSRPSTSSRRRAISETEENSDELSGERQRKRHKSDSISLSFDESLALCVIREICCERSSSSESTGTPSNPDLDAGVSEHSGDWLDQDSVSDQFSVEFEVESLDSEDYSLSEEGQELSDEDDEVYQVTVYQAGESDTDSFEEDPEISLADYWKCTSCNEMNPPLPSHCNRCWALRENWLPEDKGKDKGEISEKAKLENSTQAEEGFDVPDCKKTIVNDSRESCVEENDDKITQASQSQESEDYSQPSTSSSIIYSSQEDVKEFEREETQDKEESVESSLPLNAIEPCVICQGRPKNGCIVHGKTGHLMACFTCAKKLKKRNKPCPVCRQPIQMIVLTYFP
In short: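 HTRF-type assay using 4 nM GST-MDM2 (final), Biotin-P53, SA-XL665 and anti-GST-Tb in PBS with 0.1% BSA, 5 mM DTT and 1 mM AEBSF. Compounds in 5-fold serial dilutions over twelve points; incubation 90 min at 25° C with shaking before plate-reader read-out.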

[1] = Pharmacokinetics in ICR mice after intravenous and intragastric administration; assay type: in vivo; conditions: for MRT last: read-out: MRT(0-t); for MRT inf: read-out: MRT(0-∞); for Vd: read-out: Vz
In short: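 Compounds were dissolved at 0.5 mg/ml in DMSO/PEG400/HP-β-CD saline vehicle and given to overnight-fasted male ICR mice, 2 mg/kg by vein or 5 mg/kg by gavage (n=3 each). Plasma was then protein-precipitated, assayed by LC-MS/MS, and PK parameters including oral bioavailability were derived.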

[2] = test system: human osteosarcoma cell line SJSA-1; assay: Inhibition of proliferation of human osteosarcoma cell line SJSA-1 (DAPI staining, In Cell Analyzer); conditions: Homo sapiens, SJSA-1, 72 h, read-out: IC50 (nM), inhibitory activity on proliferation of human osteosarcoma cell line SJSA-1, SJSA-1, incubated 72 h
Description: 2.2 Experiment Preparation:
2.2.1 Preparation of a culture medium for human osteosarcoma cell line SJSA-1: RPMI1640+10% FBS+1% penicillin/streptomycin
2.2.2 Preparation of a test compound solution:
a. the test compound solution with a certain concentration was taken, and diluted with the culture medium to obtain a compound solution with a final concentration of 20 μM;
b. 200 μL of a culture medium containing 0.2% DMSO (dimethyl sulfoxide) was added into H2-H10 of a 96-well plate; 300 μl of the above solution was added into H1; and
c. 100 μL was taken out from well H1, added into H2, and mixed well; then 100 μl of the resultant solution was taken and added into H3, and dilution was carried out in sequence until H9 to obtain the 3-fold serial dilution of the test compound.
2.3 Experimental Process:
2.3.1 SJSA-1 cells were inoculated into a 96-well cell plate with black transparent bottom at 4000 cells/100 μl/well, and cultured overnight at 37° C.;
2.3.3 Fixation: the cell plate was taken out, the culture medium was removed, and 50 μL of 4% paraformaldehyde solution was added to each well to fix for 10 min;
2.3.4 50 μl of 0.1 M glycine was added to neutralize for 10 min;
2.3.5 Washing was performed with 1×PBS (phosphate buffer solution pH7.2) twice;
2.3.6 Permeabilization: 50 μL of 0.2% TritonX-100 (Triton) was added per well, and permeabilization was carried out at room temperature for 10 min;
2.3.7 Washing was performed with 1×PBS (phosphate buffer solution pH7.2) twice;
2.3.9 Washing was performed with 1×PBS (phosphate buffer solution pH7.2) for three times; and
2.3.10 Scanning and analysis were performed by In cell analyzer.
The inhibition rate of each compound at each concentration point was calculated according to the following formula, and curve fitting was performed by GraphPad Prism 6.0 software to obtain the IC50 value.

[3] = ICR mice, IV 2 mg/kg, individual animals 301-303, 2 mg/kg
[4] = ICR mice, PO 5 mg/kg, individual animals 401-403, 5 mg/kg
[5] = male, ICR, mouse, plasma, iv, 2 mg/kg, ICR mice, IV 2 mg/kg, individual animals 301-303
[6] = male, ICR, mouse, plasma, iv, 2 mg/kg, ICR mice, IV 2 mg/kg, mean of 3 animals
[7] = male, ICR, mouse, plasma, po, 5 mg/kg, ICR mice, PO 5 mg/kg, individual animals 401-403
[8] = male, ICR, mouse, plasma, po, 5 mg/kg, ICR mice, PO 5 mg/kg, mean of 3 animals

CCOc1ncc(-c2nc3c(n2C(C)C)[C@@]2(C(=O)Nc4cc(Cl)ccc42)N(c2cc(Cl)cnc2C)C3=O)c(OC)n1 [Example S-134, (S)-6-chloro-5′-(5-chloro-2-methylpyridin-3-yl)-2′-(2-ethoxy-4-methoxypyrimidin-5-yl)-3′-isopropyl-3′H-spiro[dihydroindole-3,4′-pyrrolo[3,4-d]imidazole]-2,6′(5′H)-dione]
IC50 (MDM2): 0.0026 µM
AUC(0-t) [1, 3]: 7289.25 ng·h/mL and 6534.27 ng·h/mL
AUC(0-∞) [1, 3]: 7419.12 ng·h/mL and 6880.52 ng·h/mL
CL [1, 3]: 4.49 mL/min/kg and 4.84 mL/min/kg
Cmax [1, 3]: 4224.01 ng/mL and 3408.57 ng/mL
MRT(0-t) [1, 3]: 1.28 h and 1.50 h
MRT(0-∞) [1, 3]: 1.39 h and 1.83 h
Tmax [1, 3]: 0.08 h and 0.25 h
Vz [1, 3]: 0.42 L/kg and 0.61 L/kg
t1/2 [1, 3]: 1.07 h and 1.47 h
F* ([1]; ICR mice, PO 5 mg/kg vs IV 2 mg/kg, mean): 47.70%
AUC(0-t) [1, 4]: 7889.97 ng·h/mL and 4859.23 ng·h/mL
AUC(0-∞) [1, 4]: 8123.13 ng·h/mL and 4978.41 ng·h/mL
Cmax [1, 4]: 3905.15 ng/mL and 3059.53 ng/mL and 1591.65 ng/mL
MRT(0-t) [1, 4]: 2.21 h
MRT(0-∞) [1, 4]: 2.28 h and 2.40 h
Tmax [1, 4]: 0.25 h
t1/2 [1, 4]: 1.54 h and 1.43 h
AUC(0-inf) [1, 5]: 5060 ng·h/mL
clearance [1, 5]: 6.59 mL/min/kg
AUC(0-t) ([1]; male, ICR, mouse, plasma, iv, 2 mg/kg, ICR mice, IV 2 mg/kg, individual animals 301-303, read-out: AUC(0-t)): 5020 ng·h/mL
Cmax ([1]; male, ICR, mouse, plasma, iv, 2 mg/kg, ICR mice, IV 2 mg/kg, individual animals 301-303, read-out: Cmax): 3520 ng/mL
MRT last [1, 5]: 1.17 h
MRT inf [1, 5]: 1.23 h
Vd [1, 5]: 0.53 L/kg
half-life ([1]; male, ICR, mouse, plasma, iv, 2 mg/kg, ICR mice, IV 2 mg/kg, individual animals 301-303, read-out: t1/2 (converted)): 0.93 h
AUC(0-inf) [1, 6]: 6450 ng·h/mL
clearance [1, 6]: 5.31 mL/min/kg
AUC(0-t) ([1]; male, ICR, mouse, plasma, iv, 2 mg/kg, ICR mice, IV 2 mg/kg, mean of 3 animals, read-out: AUC(0-t)): 6280 ng·h/mL
Cmax ([1]; male, ICR, mouse, plasma, iv, 2 mg/kg, ICR mice, IV 2 mg/kg, mean of 3 animals, read-out: Cmax): 3720 ng/mL
MRT last [1, 6]: 1.32 h
MRT inf [1, 6]: 1.48 h
Tmax ([1]; male, ICR, mouse, plasma, iv, 2 mg/kg, ICR mice, IV 2 mg/kg, mean of 3 animals, read-out: Tmax): 0.14 h
Vd [1, 6]: 0.52 L/kg
half-life ([1]; male, ICR, mouse, plasma, iv, 2 mg/kg, ICR mice, IV 2 mg/kg, mean of 3 animals, read-out: t1/2 (converted)): 1.15 h
AUC(0-inf) [1, 7]: 9930 ng·h/mL
AUC(0-t) ([1]; male, ICR, mouse, plasma, po, 5 mg/kg, ICR mice, PO 5 mg/kg, individual animals 401-403, read-out: AUC(0-t)): 9720 ng·h/mL
MRT last [1, 7]: 2.04 h
MRT inf [1, 7]: 2.21 h
Tmax ([1]; male, ICR, mouse, plasma, po, 5 mg/kg, ICR mice, PO 5 mg/kg, individual animals 401-403, read-out: Tmax): 0.5 h
half-life ([1]; male, ICR, mouse, plasma, po, 5 mg/kg, ICR mice, PO 5 mg/kg, individual animals 401-403, read-out: t1/2 (converted)): 1.38 h
AUC(0-inf) [1, 8]: 7680 ng·h/mL
AUC(0-t) ([1]; male, ICR, mouse, plasma, po, 5 mg/kg, ICR mice, PO 5 mg/kg, mean of 3 animals, read-out: AUC(0-t)): 7490 ng·h/mL
Cmax ([1]; male, ICR, mouse, plasma, po, 5 mg/kg, ICR mice, PO 5 mg/kg, mean of 3 animals, read-out: Cmax): 2850 ng/mL
MRT last [1, 8]: 2.1 h
MRT inf [1, 8]: 2.29 h
Tmax ([1]; male, ICR, mouse, plasma, po, 5 mg/kg, ICR mice, PO 5 mg/kg, mean of 3 animals, read-out: Tmax): 0.42 h
half-life ([1]; male, ICR, mouse, plasma, po, 5 mg/kg, ICR mice, PO 5 mg/kg, mean of 3 animals, read-out: t1/2 (converted)): 1.45 h
AUC(0-t) ([1]; male, ICR, mouse, plasma, po, 5 mg/kg, oral intragastric administration 5 mg/kg, read-out: AUC0-t): 7490 ng·h/mL
half-life ([1]; male, ICR, mouse, plasma, po, 5 mg/kg, oral intragastric administration 5 mg/kg, read-out: half-life (converted)): 1.45 h
IC50 [2]: 82.2 nM
